Experimental data published in US20250230193A1, “CYCLIC COMPOUND HAVING SELECTIVE KRAS INHIBITORY EFFECT ON HRAS AND NRAS” (CHUGAI SEIYAKU KABUSHIKI KAISHA, priority 2022, published 2025).
*1 amine or outer side, *2 acyl side, *3 side chain or, on linkers, in order; H or OH if unused. Where a SMILES comes first, the peptide text is derived from it. Bridges are numbered along the chain shown (N, C = ends). [ ]: non-standard residue; d: D form. The star is where a group is joined. hPhe(3-Cl-4-CF3) = N[C@@H](CCc1ccc(C(F)(F)F)c(Cl)c1)C(=O)O; NPrPhe(4-CF3) = CCCN[C@@H](Cc1ccc(C(F)(F)F)cc1)C(=O)O; NEtPhe(4-CF3) = CCN[C@@H](Cc1ccc(C(F)(F)F)cc1)C(=O)O; hPhe(3,4-Cl2) = N[C@@H](CCc1ccc(Cl)c(Cl)c1)C(=O)O; X10 = CCCN([C@@H](Cc1ccc(F)cc1)C(=O)[*:2])[*:1]; NEtPhe(4-F) = CCN[C@@H](Cc1ccc(F)cc1)C(=O)O; NMeGly(cPent) = CN[C@H](C(=O)O)C1CCCC1; Hyp = O=C(O)[C@@H]1C[C@@H](O)CN1; NMeD = CN[C@@H](CC(=O)O)C(=O)O; NMeL = CN[C@@H](CC(C)C)C(=O)O; Ac6c = NC1(C(=O)O)CCCCC1; Morpholide = C1CN(*)CCO1; NMeA = CN[C@@H](C)C(=O)O; Ac5c = NC1(C(=O)O)CCCC1; Aze = O=C(O)[C@@H]1CCN1; Ac3c = NC1(C(=O)O)CC1; Aib = CC(C)(N)C(=O)O; Sar = CNCC(=O)O

How the values were obtained:
[1] = target: GDP-bound HRAS wild-type protein (Homo sapiens, UniProt P01112); test: Binding to HRAS by surface plasmon resonance (SPR), Single Cycle Kinetics; details: KD ratio HRAS/KRAS, SPR
[2] = target: GDP-bound NRAS wild-type protein (Homo sapiens, UniProt P01111); test: Binding to NRAS by surface plasmon resonance (SPR), Single Cycle Kinetics; details: KD ratio NRAS/KRAS, SPR
GDP-bound NRAS wild-type protein, sequence (P01111 whole entry): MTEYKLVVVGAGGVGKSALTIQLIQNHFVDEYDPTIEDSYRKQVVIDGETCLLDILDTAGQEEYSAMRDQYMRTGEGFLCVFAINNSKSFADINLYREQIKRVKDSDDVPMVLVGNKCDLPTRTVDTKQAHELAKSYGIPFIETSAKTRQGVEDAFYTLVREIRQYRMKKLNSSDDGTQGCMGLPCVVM

GDP-bound HRAS wild-type protein, sequence (P01112 whole entry): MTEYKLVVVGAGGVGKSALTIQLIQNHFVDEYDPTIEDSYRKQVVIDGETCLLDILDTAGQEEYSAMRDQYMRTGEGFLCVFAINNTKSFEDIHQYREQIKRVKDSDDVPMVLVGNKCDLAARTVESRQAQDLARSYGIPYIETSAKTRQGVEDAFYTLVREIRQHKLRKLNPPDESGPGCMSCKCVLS

Row | Structure (SMILES) | HRAS/KRAS (ratio of KD for GDP-bound HRAS wild-type to KD for KRAS) [1] | NRAS/KRAS (ratio of KD for GDP-bound NRAS wild-type to KD for KRAS) [2]
1 | CC[C@H](C)[C@@H]1NC(=O)[C@H](CC(C)C)N(C)C(=O)C[C@@H](C(=O)N2CCOCC2)N(C)C(=O)[C@H](C2CCCC2)N(C)C(=O)C2(CCCC2)NC(=O)[C@@H]2CCCN2C(=O)[C@H](CCc2ccc(C(F)(F)F)c(Cl)c2)NC(=O)CN(C)C(=O)[C@H](Cc2ccc(F)cc2)N(CC)C(=O)[C@@H]2CCN2C(=O)[C@H](C)N(C)C1=O [PP0218] ([NMeL]I[NMeA][Aze][NEtPhe(4-F)][Sar][hPhe(3-Cl-4-CF3)]P[Ac5c][NMeGly(cPent)][NMeD]-Morpholide; lactam N-11) | C (A compound having a KD ratio of 0.1 or more and less than 3 is denoted as C) | C (A compound having a KD ratio of 0.1 or more and less than 3 is denoted as C)
2 | CCCN1C(=O)[C@@H]2CCN2C(=O)[C@H](C)N(C)C(=O)[C@H]([C@@H](C)CC)NC(=O)[C@H](CC(C)C)N(C)C(=O)C[C@@H](C(=O)N2CCOCC2)N(C)C(=O)[C@H](C2CCCC2)N(C)C(=O)C2(CCCC2)NC(=O)[C@@H]2CCCN2C(=O)[C@H](CCc2ccc(C(F)(F)F)c(Cl)c2)NC(=O)CN(C)C(=O)[C@@H]1Cc1ccc(F)cc1 [PP0219] ([NMeL]I[NMeA][Aze][X10][Sar][hPhe(3-Cl-4-CF3)]P[Ac5c][NMeGly(cPent)][NMeD]-Morpholide; lactam N-11) | B (a compound having 3 or more and less than 10 is denoted as B) | C (A compound having a KD ratio of 0.1 or more and less than 3 is denoted as C)
3 | CC[C@H](C)[C@@H]1NC(=O)[C@H](CC(C)C)N(C)C(=O)C[C@@H](C(=O)N2CCOCC2)N(C)C(=O)[C@H](C2CCCC2)N(C)C(=O)C2(CC2)NC(=O)[C@@H]2CCCN2C(=O)[C@H](CCc2ccc(C(F)(F)F)c(Cl)c2)NC(=O)CN(C)C(=O)[C@H](Cc2ccc(C(F)(F)F)cc2)N(CC)C(=O)[C@@H]2CCN2C(=O)[C@H](C)N(C)C1=O [PP0220] ([NMeL]I[NMeA][Aze][NEtPhe(4-CF3)][Sar][hPhe(3-Cl-4-CF3)]P[Ac3c][NMeGly(cPent)][NMeD]-Morpholide; lactam N-11) | C (A compound having a KD ratio of 0.1 or more and less than 3 is denoted as C) | C (A compound having a KD ratio of 0.1 or more and less than 3 is denoted as C)
4 | CC[C@H](C)[C@@H]1NC(=O)[C@H](CC(C)C)N(C)C(=O)C[C@@H](C(=O)N2CCOCC2)N(C)C(=O)[C@H](C2CCCC2)N(C)C(=O)C(C)(C)NC(=O)[C@@H]2CCCN2C(=O)[C@H](CCc2ccc(C(F)(F)F)c(Cl)c2)NC(=O)CN(C)C(=O)[C@H](Cc2ccc(C(F)(F)F)cc2)N(CC)C(=O)[C@@H]2CCN2C(=O)[C@H](C)N(C)C1=O [PP0221] ([NMeL]I[NMeA][Aze][NEtPhe(4-CF3)][Sar][hPhe(3-Cl-4-CF3)]P[Aib][NMeGly(cPent)][NMeD]-Morpholide; lactam N-11) | C (A compound having a KD ratio of 0.1 or more and less than 3 is denoted as C) | C (A compound having a KD ratio of 0.1 or more and less than 3 is denoted as C)
5 | CC[C@H](C)[C@@H]1NC(=O)[C@H](CC(C)C)N(C)C(=O)C[C@@H](C(=O)N2CCOCC2)N(C)C(=O)[C@H](C2CCCC2)N(C)C(=O)C2(CCCCC2)NC(=O)[C@@H]2CCCN2C(=O)[C@H](CCc2ccc(C(F)(F)F)c(Cl)c2)NC(=O)CN(C)C(=O)[C@H](Cc2ccc(C(F)(F)F)cc2)N(CC)C(=O)[C@@H]2CCN2C(=O)[C@H](C)N(C)C1=O [PP0222] ([NMeL]I[NMeA][Aze][NEtPhe(4-CF3)][Sar][hPhe(3-Cl-4-CF3)]P[Ac6c][NMeGly(cPent)][NMeD]-Morpholide; lactam N-11) | C (A compound having a KD ratio of 0.1 or more and less than 3 is denoted as C) | C (A compound having a KD ratio of 0.1 or more and less than 3 is denoted as C)
6 | CC[C@H](C)[C@@H]1NC(=O)[C@H](CC(C)C)N(C)C(=O)C[C@@H](C(=O)N2CCOCC2)N(C)C(=O)[C@H](C2CCCC2)N(C)C(=O)C2(CCCC2)NC(=O)[C@@H]2CCCN2C(=O)[C@H](CCc2ccc(Cl)c(Cl)c2)NC(=O)CN(C)C(=O)[C@H](Cc2ccc(C(F)(F)F)cc2)N(CC)C(=O)[C@@H]2CCN2C(=O)[C@H](C)N(C)C1=O [PP0223] ([NMeL]I[NMeA][Aze][NEtPhe(4-CF3)][Sar][hPhe(3,4-Cl2)]P[Ac5c][NMeGly(cPent)][NMeD]-Morpholide; lactam N-11) | C (A compound having a KD ratio of 0.1 or more and less than 3 is denoted as C) | C (A compound having a KD ratio of 0.1 or more and less than 3 is denoted as C)
7 | CCCN1C(=O)[C@@H]2CCN2C(=O)[C@H](C)N(C)C(=O)[C@H]([C@@H](C)CC)NC(=O)[C@H](CC(C)C)N(C)C(=O)C[C@@H](C(=O)N2CCOCC2)N(C)C(=O)[C@H](C2CCCC2)N(C)C(=O)C2(CC2)NC(=O)[C@@H]2CCCN2C(=O)[C@H](CCc2ccc(C(F)(F)F)c(Cl)c2)NC(=O)CN(C)C(=O)[C@@H]1Cc1ccc(C(F)(F)F)cc1 [PP0224] ([NMeL]I[NMeA][Aze][NPrPhe(4-CF3)][Sar][hPhe(3-Cl-4-CF3)]P[Ac3c][NMeGly(cPent)][NMeD]-Morpholide; lactam N-11) | B (a compound having 3 or more and less than 10 is denoted as B) | C (A compound having a KD ratio of 0.1 or more and less than 3 is denoted as C)
8 | CCCN1C(=O)[C@@H]2CCN2C(=O)[C@H](C)N(C)C(=O)[C@H]([C@@H](C)CC)NC(=O)[C@H](CC(C)C)N(C)C(=O)C[C@@H](C(=O)N2CCOCC2)N(C)C(=O)[C@H](C2CCCC2)N(C)C(=O)C(C)(C)NC(=O)[C@@H]2CCCN2C(=O)[C@H](CCc2ccc(C(F)(F)F)c(Cl)c2)NC(=O)CN(C)C(=O)[C@@H]1Cc1ccc(C(F)(F)F)cc1 [PP0225] ([NMeL]I[NMeA][Aze][NPrPhe(4-CF3)][Sar][hPhe(3-Cl-4-CF3)]P[Aib][NMeGly(cPent)][NMeD]-Morpholide; lactam N-11) | C (A compound having a KD ratio of 0.1 or more and less than 3 is denoted as C) | C (A compound having a KD ratio of 0.1 or more and less than 3 is denoted as C)
9 | CCCN1C(=O)[C@@H]2CCN2C(=O)[C@H](C)N(C)C(=O)[C@H]([C@@H](C)CC)NC(=O)[C@H](CC(C)C)N(C)C(=O)C[C@@H](C(=O)N2CCOCC2)N(C)C(=O)[C@H](C2CCCC2)N(C)C(=O)C2(CCCCC2)NC(=O)[C@@H]2CCCN2C(=O)[C@H](CCc2ccc(C(F)(F)F)c(Cl)c2)NC(=O)CN(C)C(=O)[C@@H]1Cc1ccc(C(F)(F)F)cc1 [PP0226] ([NMeL]I[NMeA][Aze][NPrPhe(4-CF3)][Sar][hPhe(3-Cl-4-CF3)]P[Ac6c][NMeGly(cPent)][NMeD]-Morpholide; lactam N-11) | B (a compound having 3 or more and less than 10 is denoted as B) | C (A compound having a KD ratio of 0.1 or more and less than 3 is denoted as C)
10 | CCCN1C(=O)[C@@H]2CCN2C(=O)[C@H](C)N(C)C(=O)[C@H]([C@@H](C)CC)NC(=O)[C@H](CC(C)C)N(C)C(=O)C[C@@H](C(=O)N2CCOCC2)N(C)C(=O)[C@H](C2CCCC2)N(C)C(=O)C2(CCCC2)NC(=O)[C@@H]2CCCN2C(=O)[C@H](CCc2ccc(Cl)c(Cl)c2)NC(=O)CN(C)C(=O)[C@@H]1Cc1ccc(C(F)(F)F)cc1 [PP0227] ([NMeL]I[NMeA][Aze][NPrPhe(4-CF3)][Sar][hPhe(3,4-Cl2)]P[Ac5c][NMeGly(cPent)][NMeD]-Morpholide; lactam N-11) | B (a compound having 3 or more and less than 10 is denoted as B) | C (A compound having a KD ratio of 0.1 or more and less than 3 is denoted as C)
11 | CCCN1C(=O)[C@@H]2CCN2C(=O)[C@H](C)N(C)C(=O)[C@H]([C@@H](C)CC)NC(=O)[C@H](CC(C)C)N(C)C(=O)C[C@@H](C(=O)N2CCOCC2)N(C)C(=O)[C@H](C2CCCC2)N(C)C(=O)C2(CCCC2)NC(=O)[C@@H]2C[C@@H](OCC)CN2C(=O)[C@H](CCc2ccc(C(F)(F)F)c(Cl)c2)NC(=O)CN(C)C(=O)[C@@H]1Cc1ccc(C(F)(F)F)cc1 [PP0228] ([NMeL]I[NMeA][Aze][NPrPhe(4-CF3)][Sar][hPhe(3-Cl-4-CF3)][Hyp](Et)[Ac5c][NMeGly(cPent)][NMeD]-Morpholide; lactam N-11) | B (a compound having 3 or more and less than 10 is denoted as B) | C (A compound having a KD ratio of 0.1 or more and less than 3 is denoted as C)
12 | CCCN1C(=O)CN(C)C(=O)CN(C)C(=O)[C@H]([C@@H](C)CC)NC(=O)[C@H](CC(C)C)N(C)C(=O)C[C@@H](C(=O)N2CCOCC2)N(C)C(=O)[C@H](C2CCCC2)N(C)C(=O)C2(CC2)NC(=O)[C@@H]2CCCN2C(=O)[C@H](CCc2ccc(C(F)(F)F)c(Cl)c2)NC(=O)CN(C)C(=O)[C@@H]1Cc1ccc(C(F)(F)F)cc1 [PP0229] ([NMeL]I[Sar][Sar][NPrPhe(4-CF3)][Sar][hPhe(3-Cl-4-CF3)]P[Ac3c][NMeGly(cPent)][NMeD]-Morpholide; lactam N-11) | B (a compound having 3 or more and less than 10 is denoted as B) | B (a compound having 3 or more and less than 10 is denoted as B)
13 | CCCN1C(=O)CN(C)C(=O)CN(C)C(=O)[C@H]([C@@H](C)CC)NC(=O)[C@H](CC(C)C)N(C)C(=O)C[C@@H](C(=O)N2CCOCC2)N(C)C(=O)[C@H](C2CCCC2)N(C)C(=O)C(C)(C)NC(=O)[C@@H]2CCCN2C(=O)[C@H](CCc2ccc(C(F)(F)F)c(Cl)c2)NC(=O)CN(C)C(=O)[C@@H]1Cc1ccc(C(F)(F)F)cc1 [PP0230] ([NMeL]I[Sar][Sar][NPrPhe(4-CF3)][Sar][hPhe(3-Cl-4-CF3)]P[Aib][NMeGly(cPent)][NMeD]-Morpholide; lactam N-11) | C (A compound having a KD ratio of 0.1 or more and less than 3 is denoted as C) | B (a compound having 3 or more and less than 10 is denoted as B)
